Tested on: COL1A1 mRNA
Assay: qRT-PCR of COL1A1 mRNA in human primary hepatic stellate cells
Assay type: cell-based
Conditions: 3 μM, relative to GAPDH

## COc1cccc2cc(-c3nc([C@H]4CC[C@H](C(=O)O)CC4)n4ncnc(N)c34)[nH]c12 [OSI-027]
  Primary Stellate cells COL1A1 (fold change in mRNA expression): 0.51

Reference: US20220107328A1, “METHODS OF TREATING LIVER DISEASES” (Camp4 Therapeutics Corporation, priority 2018, published 2022)
